Measurements from ChEMBL document CHEMBL5360563, “Discovery of a potent and selective allosteric inhibitor targeting the SHP2 tunnel site for RTK-driven cancer treatment” (Eur J Med Chem, 2023).
pIC50: −log10 of the molar value.

Assays:
[1] = biological target: T1, Tyrosine-protein phosphatase non-receptor type 11 (Homo sapiens, UniProt Q06124); assay: Inhibition of pIRS-1 peptide activated human wild type SHP2 FL (Met1 to Leu525 residues) using DiFMUP as substrate preincubated for 30 mins followed by substrate addition and measured after 30 mins by microplate reader method
T1 sequence (Q06124 whole entry): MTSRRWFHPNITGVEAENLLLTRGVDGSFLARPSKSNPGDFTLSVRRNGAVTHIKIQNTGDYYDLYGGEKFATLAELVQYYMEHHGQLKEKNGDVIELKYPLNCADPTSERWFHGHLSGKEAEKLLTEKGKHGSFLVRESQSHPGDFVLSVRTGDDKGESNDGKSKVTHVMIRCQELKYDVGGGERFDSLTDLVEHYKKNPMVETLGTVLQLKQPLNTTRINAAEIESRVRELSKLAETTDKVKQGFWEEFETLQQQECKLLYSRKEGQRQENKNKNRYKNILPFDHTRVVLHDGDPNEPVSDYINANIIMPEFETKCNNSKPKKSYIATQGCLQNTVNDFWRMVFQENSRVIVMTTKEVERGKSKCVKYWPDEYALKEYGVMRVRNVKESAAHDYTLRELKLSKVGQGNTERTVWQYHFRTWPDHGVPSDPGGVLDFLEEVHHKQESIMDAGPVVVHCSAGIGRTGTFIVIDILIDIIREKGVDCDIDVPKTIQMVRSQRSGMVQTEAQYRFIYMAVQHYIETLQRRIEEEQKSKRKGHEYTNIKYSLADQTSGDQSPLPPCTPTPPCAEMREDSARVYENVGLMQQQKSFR

[2] = biological target: T1, Tyrosine-protein phosphatase non-receptor type 11; assay: Inhibition of human SHP2 in human NCI-H1975 cells assessed as reduction in ERK phosphorylation by Western blot analysis; format: cell-based
[3] = biological target: T1, Tyrosine-protein phosphatase non-receptor type 11; assay: Inhibition of human SHP2 in human NCI-H1975/OSIR cells assessed as reduction in ERK phosphorylation by Western blot analysis; format: cell-based
[4] = Half life in Sprague-Dawley rat at 5 mg/kg, iv and measured upto 24 hrs by LC-MS/MS analysis; format: ADME, organism-based; conditions: in vivo
[5] = Tmax in Sprague-Dawley rat at 5 mg/kg, iv and measured upto 24 hrs by LC-MS/MS analysis; format: ADME, organism-based; conditions: in vivo
[6] = Cmax in Sprague-Dawley rat at 5 mg/kg, iv and measured upto 24 hrs by LC-MS/MS analysis; format: ADME, organism-based; set-up: dose 5 mg/kg, time < 24 hrs, route iv; conditions: in vivo
[7] = AUC (0 to infinity) in Sprague-Dawley rat at 5 mg/kg, iv and measured upto 24 hrs by LC-MS/MS analysis; format: ADME, organism-based; set-up: dose 5 mg/kg, time < 24 hrs, route iv; conditions: in vivo
[8] = Volume of distribution at steady state in Sprague-Dawley rat at 5 mg/kg, iv and measured upto 24 hrs by LC-MS/MS analysis; format: ADME, organism-based; conditions: in vivo, read-out: Vdss
[9] = Clearance in Sprague-Dawley rat at 5 mg/kg, iv and measured upto 24 hrs by LC-MS/MS analysis; format: ADME, organism-based; conditions: in vivo
[10] = Half life in Sprague-Dawley rat at 5 mg/kg, po and measured upto 24 hrs by LC-MS/MS analysis; format: ADME, organism-based; conditions: in vivo
[11] = Tmax in Sprague-Dawley rat at 5 mg/kg, po and measured upto 24 hrs by LC-MS/MS analysis; format: ADME, organism-based; conditions: in vivo
[12] = Cmax in Sprague-Dawley rat at 5 mg/kg, po and measured upto 24 hrs by LC-MS/MS analysis; format: ADME, organism-based; set-up: dose 5 mg/kg, time < 24 hrs, route po; conditions: in vivo
[13] = AUC (0 to infinity) in Sprague-Dawley rat at 5 mg/kg, po and measured upto 24 hrs by LC-MS/MS analysis; format: ADME, organism-based; set-up: dose 5 mg/kg, time < 24 hrs, route po; conditions: in vivo
[14] = Oral bioavailability in Sprague-Dawley rat at 5 mg/kg and measured upto 24 hrs by LC-MS/MS analysis; format: ADME, organism-based; conditions: in vivo
[15] = biological target: Dual specificity tyrosine-phosphorylation-regulated kinase 1B (Homo sapiens) (UniProt Q9Y463); conditions: dose 1000.0 nM
Chain of Dual specificity tyrosine-phosphorylation-regulated kinase 1B (Homo sapiens) (Q9Y463 whole entry, looked up): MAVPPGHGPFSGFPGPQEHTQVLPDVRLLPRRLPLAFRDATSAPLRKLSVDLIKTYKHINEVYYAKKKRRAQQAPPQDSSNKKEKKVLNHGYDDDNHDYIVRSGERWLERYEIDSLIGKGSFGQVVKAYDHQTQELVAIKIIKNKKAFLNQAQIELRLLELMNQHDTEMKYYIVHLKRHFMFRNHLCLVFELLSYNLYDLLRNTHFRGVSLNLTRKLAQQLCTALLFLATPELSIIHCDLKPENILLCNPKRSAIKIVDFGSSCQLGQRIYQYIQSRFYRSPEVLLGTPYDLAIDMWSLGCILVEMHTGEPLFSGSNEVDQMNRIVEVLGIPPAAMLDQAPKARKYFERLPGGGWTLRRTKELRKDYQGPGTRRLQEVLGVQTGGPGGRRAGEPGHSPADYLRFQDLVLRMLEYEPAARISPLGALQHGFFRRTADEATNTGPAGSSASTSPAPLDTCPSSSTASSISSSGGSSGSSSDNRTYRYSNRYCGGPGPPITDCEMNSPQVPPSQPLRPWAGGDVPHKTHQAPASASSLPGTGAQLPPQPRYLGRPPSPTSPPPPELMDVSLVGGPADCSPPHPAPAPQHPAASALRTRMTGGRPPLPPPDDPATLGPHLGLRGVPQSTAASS
Description: Inhibition of DYRK1B (unknown origin) at 1000 nM by KINOMEscan assay relative to control

[16] = biological target: Serine/threonine-protein kinase 32C (Homo sapiens) (UniProt Q86UX6); conditions: dose 1000.0 nM
Chain of Serine/threonine-protein kinase 32C (Homo sapiens) (Q86UX6 whole entry): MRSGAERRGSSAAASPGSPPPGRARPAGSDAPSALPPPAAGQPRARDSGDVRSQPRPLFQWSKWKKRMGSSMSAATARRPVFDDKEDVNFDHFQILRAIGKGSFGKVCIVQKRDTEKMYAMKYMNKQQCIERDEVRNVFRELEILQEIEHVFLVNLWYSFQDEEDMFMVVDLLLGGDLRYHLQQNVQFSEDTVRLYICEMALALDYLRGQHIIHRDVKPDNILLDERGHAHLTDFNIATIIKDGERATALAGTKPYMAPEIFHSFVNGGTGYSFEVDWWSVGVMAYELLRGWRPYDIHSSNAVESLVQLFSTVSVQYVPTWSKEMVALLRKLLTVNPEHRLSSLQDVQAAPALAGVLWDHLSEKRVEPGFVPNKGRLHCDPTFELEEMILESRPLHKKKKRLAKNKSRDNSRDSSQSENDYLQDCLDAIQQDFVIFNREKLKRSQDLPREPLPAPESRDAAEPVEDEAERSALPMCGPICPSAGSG
Description: Inhibition of YANK3 (unknown origin) at 1000 nM by KINOMEscan assay relative to control

[17] = biological target: T2, TGF-beta receptor type-1 (Homo sapiens) (UniProt P36897); conditions: dose 1000.0 nM
T2 sequence (whole entry): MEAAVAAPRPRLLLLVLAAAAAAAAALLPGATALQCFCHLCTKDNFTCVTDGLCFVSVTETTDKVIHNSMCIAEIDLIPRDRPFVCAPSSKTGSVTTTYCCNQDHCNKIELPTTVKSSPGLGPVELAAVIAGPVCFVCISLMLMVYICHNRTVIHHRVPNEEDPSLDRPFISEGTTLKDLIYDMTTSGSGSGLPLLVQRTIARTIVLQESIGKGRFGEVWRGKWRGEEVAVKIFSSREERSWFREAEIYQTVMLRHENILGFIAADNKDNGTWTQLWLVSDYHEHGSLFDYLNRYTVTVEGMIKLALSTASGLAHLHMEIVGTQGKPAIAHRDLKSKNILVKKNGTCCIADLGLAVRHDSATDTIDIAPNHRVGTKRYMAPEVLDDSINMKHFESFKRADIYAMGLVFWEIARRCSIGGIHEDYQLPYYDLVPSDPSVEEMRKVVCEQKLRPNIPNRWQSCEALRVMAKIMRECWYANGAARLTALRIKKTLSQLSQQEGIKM
Description: Inhibition of TGFBR1 (unknown origin) at 1000 nM by KINOMEscan assay relative to control

[18] = biological target: Insulin receptor (Homo sapiens) (UniProt P06213); conditions: dose 1000.0 nM
Chain of Insulin receptor (Homo sapiens) (P06213 28-758 limits assumed): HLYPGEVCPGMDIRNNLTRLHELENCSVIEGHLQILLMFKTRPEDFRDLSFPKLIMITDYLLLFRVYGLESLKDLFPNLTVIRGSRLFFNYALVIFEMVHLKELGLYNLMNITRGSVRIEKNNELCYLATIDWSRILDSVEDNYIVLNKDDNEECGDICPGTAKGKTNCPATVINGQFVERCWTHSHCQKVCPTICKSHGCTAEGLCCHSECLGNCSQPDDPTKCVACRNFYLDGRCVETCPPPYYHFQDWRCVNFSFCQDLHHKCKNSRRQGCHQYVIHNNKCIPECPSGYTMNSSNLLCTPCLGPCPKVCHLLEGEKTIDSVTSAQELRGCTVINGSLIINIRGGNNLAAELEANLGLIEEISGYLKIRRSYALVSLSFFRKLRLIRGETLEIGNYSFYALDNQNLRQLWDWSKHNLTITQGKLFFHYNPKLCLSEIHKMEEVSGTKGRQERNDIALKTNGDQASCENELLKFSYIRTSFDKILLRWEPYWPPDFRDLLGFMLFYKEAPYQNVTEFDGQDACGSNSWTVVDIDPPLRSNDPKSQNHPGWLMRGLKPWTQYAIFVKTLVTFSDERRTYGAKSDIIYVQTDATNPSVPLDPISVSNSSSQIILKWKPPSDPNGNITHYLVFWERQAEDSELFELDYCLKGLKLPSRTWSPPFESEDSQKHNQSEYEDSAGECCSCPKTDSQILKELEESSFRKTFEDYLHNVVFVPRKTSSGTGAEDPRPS
Chain of Insulin receptor (Homo sapiens) (P06213 763-1382 limits assumed): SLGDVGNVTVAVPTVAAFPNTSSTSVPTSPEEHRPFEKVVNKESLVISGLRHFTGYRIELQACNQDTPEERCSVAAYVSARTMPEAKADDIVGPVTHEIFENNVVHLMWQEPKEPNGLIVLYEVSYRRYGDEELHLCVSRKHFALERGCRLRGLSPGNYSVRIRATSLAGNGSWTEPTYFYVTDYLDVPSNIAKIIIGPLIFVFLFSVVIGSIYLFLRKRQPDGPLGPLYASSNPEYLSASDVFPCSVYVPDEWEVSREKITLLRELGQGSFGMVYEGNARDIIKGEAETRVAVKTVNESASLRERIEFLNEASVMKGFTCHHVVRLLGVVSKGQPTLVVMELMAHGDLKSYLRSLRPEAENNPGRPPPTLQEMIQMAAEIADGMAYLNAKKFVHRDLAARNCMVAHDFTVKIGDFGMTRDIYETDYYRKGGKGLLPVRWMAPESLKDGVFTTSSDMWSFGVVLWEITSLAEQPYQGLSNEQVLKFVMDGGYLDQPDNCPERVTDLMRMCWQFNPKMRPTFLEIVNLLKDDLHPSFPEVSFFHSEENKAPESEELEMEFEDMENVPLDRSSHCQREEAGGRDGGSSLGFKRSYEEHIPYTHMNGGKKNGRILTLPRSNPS
Description: Inhibition of INSR (unknown origin) at 1000 nM by KINOMEscan assay relative to control

[19] = biological target: T3, Serine/threonine-protein kinase STK11 (Homo sapiens) (UniProt Q15831); conditions: dose 1000.0 nM
T3 sequence (whole entry): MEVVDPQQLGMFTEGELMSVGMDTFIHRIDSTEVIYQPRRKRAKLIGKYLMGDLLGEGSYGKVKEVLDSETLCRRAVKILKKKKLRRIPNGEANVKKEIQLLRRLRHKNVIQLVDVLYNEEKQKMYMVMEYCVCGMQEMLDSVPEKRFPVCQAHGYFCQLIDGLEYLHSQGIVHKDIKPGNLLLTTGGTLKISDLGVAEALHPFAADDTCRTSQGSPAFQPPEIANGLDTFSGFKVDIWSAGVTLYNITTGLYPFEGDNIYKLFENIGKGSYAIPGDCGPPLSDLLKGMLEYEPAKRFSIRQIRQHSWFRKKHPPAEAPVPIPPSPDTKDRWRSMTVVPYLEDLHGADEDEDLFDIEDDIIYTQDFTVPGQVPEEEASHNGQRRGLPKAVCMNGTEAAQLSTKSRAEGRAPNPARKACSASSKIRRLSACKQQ
Description: Inhibition of LKB1 (unknown origin) at 1000 nM by KINOMEscan assay relative to control

[20] = biological target: Phosphatidylinositol 4-phosphate 3-kinase C2 domain-containing subunit beta (Homo sapiens) (UniProt O00750); conditions: dose 1000.0 nM
Chain of Phosphatidylinositol 4-phosphate 3-kinase C2 domain-containing subunit beta (Homo sapiens) (O00750 whole entry, the tested form may be a part): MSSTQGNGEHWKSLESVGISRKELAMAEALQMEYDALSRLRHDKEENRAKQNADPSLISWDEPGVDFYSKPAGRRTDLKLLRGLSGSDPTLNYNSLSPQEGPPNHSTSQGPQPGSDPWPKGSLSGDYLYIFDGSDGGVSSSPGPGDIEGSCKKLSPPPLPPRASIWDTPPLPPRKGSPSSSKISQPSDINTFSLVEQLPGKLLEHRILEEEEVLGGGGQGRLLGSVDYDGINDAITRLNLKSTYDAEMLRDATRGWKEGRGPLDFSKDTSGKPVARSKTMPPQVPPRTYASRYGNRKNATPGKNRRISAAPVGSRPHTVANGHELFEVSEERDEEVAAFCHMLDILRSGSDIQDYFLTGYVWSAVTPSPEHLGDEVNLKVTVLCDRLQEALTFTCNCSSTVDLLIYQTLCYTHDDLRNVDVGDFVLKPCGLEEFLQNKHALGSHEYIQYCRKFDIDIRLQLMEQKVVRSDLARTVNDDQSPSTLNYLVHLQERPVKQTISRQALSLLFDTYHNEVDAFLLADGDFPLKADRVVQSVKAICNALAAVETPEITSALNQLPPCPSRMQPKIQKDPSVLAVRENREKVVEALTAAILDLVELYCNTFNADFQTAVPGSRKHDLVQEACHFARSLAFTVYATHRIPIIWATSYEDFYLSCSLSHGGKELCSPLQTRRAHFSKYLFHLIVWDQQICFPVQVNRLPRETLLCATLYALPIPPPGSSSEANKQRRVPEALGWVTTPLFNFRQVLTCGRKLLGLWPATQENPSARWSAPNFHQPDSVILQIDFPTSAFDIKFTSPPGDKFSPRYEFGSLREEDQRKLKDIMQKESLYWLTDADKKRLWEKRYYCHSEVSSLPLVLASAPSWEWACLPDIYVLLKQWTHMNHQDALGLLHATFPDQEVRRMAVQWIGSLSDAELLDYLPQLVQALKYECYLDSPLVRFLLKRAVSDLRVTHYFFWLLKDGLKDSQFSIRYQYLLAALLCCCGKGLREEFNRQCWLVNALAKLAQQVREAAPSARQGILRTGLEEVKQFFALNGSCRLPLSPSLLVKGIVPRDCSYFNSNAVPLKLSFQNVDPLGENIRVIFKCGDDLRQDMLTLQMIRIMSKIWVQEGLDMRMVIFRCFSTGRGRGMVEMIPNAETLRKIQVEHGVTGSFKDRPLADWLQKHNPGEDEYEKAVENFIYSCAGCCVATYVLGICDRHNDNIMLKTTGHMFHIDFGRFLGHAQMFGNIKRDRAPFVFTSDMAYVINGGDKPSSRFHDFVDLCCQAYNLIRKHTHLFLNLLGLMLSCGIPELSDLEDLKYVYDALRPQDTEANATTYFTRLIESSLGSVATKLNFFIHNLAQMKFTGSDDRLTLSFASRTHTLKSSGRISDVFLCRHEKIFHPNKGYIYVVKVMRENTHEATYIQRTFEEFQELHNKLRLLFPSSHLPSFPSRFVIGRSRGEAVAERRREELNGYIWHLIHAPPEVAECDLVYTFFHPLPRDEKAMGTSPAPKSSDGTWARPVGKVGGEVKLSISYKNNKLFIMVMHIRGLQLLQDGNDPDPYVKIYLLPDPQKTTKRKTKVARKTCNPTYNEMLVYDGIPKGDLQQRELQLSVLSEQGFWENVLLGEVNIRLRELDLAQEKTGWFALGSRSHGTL
Description: Inhibition of PIK3C2B (unknown origin) at 1000 nM by KINOMEscan assay relative to control

SMILES	pIC50 [1]	further results
CCCN1CCN(c2ncc(C(=O)Nc3ccccc3)c(N)n2)CC1	4.94	
Nc1nc(N2CCc3ccccc3C2)ncc1C(=O)Nc1ccccc1	4.00	
CC1(N)CCN(c2ncc(C(=O)Nc3ccc(Cl)c(Cl)c3)c(N)n2)CC1	6.60	
CC(C)NC(=O)CN1CCN(c2ncc(C(=O)Nc3ccccc3)c(N)n2)CC1	5.25	
Nc1nc(N2CCSCC2)ncc1C(=O)Nc1ccccc1	5.25	
CC1(N)CCN(c2ncc(C(=O)NCc3ccccn3)c(N)n2)CC1	5.09	
CC(C)(C)OC(=O)N1CCN(c2ncc(C(=O)Nc3ccccc3)c(N)n2)CC1	4.46	
Nc1nc(N2CCOCC2)ncc1C(=O)Nc1ccccc1	5.02	
CC1(N)CCN(c2ncc(C(=O)Nc3cc(Cl)cc(Cl)c3)c(N)n2)CC1	5.47	
CCOC(=O)C1CCN(c2ncc(C(=O)Nc3ccccc3)c(N)n2)CC1	5.68	
CC1(N)CCN(c2ncc(C(=O)Nc3ccc(F)cc3)c(N)n2)CC1	6.21	
Nc1nc(N2CCN(C3CCCCC3)CC2)ncc1C(=O)Nc1ccccc1	4.00	
CC1(N)CCN(c2ncc(C(=O)Nc3ccccc3)c(N)n2)CC1	5.85	
COc1ccc(NC(=O)c2cnc(N3CCC(C)(N)CC3)nc2N)cc1	5.72	
CC1(N)CCN(c2ncc(C(=O)Nc3cccnc3)c(N)n2)CC1	7.05	pIC50 [2]: 6.23; pIC50 [3]: 6.20; half-life [4]: 319 min; Tmax [5]: 4.98 min; Cmax [6]: 854 ng/mL; AUC(0-inf) [7]: 1880 ng·h/mL; Vd [8]: 14 L/kg; clearance [9]: 44.8 mL/min/kg; half-life [10]: 286 min; Tmax [11]: 2.17 h; Cmax [12]: 101 ng/mL; AUC(0-inf) [13]: 1040 ng·h/mL; bioavailability [14]: 55.1%; inhibition [15]: 50%; inhibition [16]: 54%; inhibition [17]: 64%; inhibition [18]: 69%; inhibition [19]: > 35%; inhibition [20]: > 35%
Nc1nc(N2CCCC2)ncc1C(=O)Nc1ccccc1	4.30	
CC1(N)CCN(c2ncc(C(=O)Nc3ccc4ccccc4c3)c(N)n2)CC1	5.10	
Nc1nc(N2CCN(c3ccccn3)CC2)ncc1C(=O)Nc1ccccc1	< 4.00	
CC1(N)CCN(c2ncc(C(=O)Nc3ccc4c(c3)Cc3ccccc3-4)c(N)n2)CC1	4.00	

SMILES	pIC50 [1]	further results
CCOC(=O)N1CCN(c2ncc(C(=O)Nc3ccccc3)c(N)n2)CC1	5.07	
COc1ccccc1CN1CCCC(c2[nH]ccc2C(N)=O)C1 (stereo unspecified)	4.72	
COc1cccc(OC)c1NC(=O)c1cnc(N2CCC(C)(N)CC2)nc1N	4.90	
CCN1CCN(c2ncc(C(=O)Nc3ccccc3)c(N)n2)CC1	4.99	
COc1ccc2nc(C)cc(Nc3ccccc3OC)c2c1	4.87	
Nc1nc(N2CCC3(CC2)OCCO3)ncc1C(=O)Nc1ccccc1	4.89	
CC1(N)CCN(c2ncc(C(=O)Nc3cccc(-c4ccccc4)c3)c(N)n2)CC1	< 4.00	
CN(Cc1ccccc1)c1ncc(C(=O)Nc2ccccc2)c(N)n1	< 4.00	
CC(C)N1CCN(c2ncc(C(=O)Nc3ccccc3)c(N)n2)CC1	5.03	
Nc1nc(N2CCN(c3ccccc3)CC2)ncc1C(=O)Nc1ccccc1	< 4.00	
CC1(N)CCN(c2ncc(C(=O)Nc3cccc4ccccc34)c(N)n2)CC1	4.00	
COc1ccc(NC(=O)c2cnc(N3CCC(C)(N)CC3)nc2N)cc1OC	5.64	
CC(=O)N1CCN(c2ncc(C(=O)Nc3ccccc3)c(N)n2)CC1	5.17	
CC1(N)CCN(c2ncc(C(=O)Nc3ccc([N+](=O)[O-])cc3)c(N)n2)CC1	5.70	
CC1(N)CCN(c2ncc(C(=O)Nc3ccccn3)c(N)n2)CC1	6.10	
Nc1nc(N2CCN(C(=O)c3ccco3)CC2)ncc1C(=O)Nc1ccccc1	4.00	
CCCCN(C)c1ncc(C(=O)Nc2ccccc2)c(N)n1	4.60	
COc1ccc(N2CCN(c3ncc(C(=O)Nc4ccccc4)c(N)n3)CC2)cc1	< 4.00	
